≈ marks a conversion by molar mass, not a printed value.
Test system: Escherichia coli
Experiment: Inhibitory concentration of compound was determined against Escherichia coli in the absence of alkynyl amino acid 1
Format: functional, organism-based

IC50: 5 µg/mL (≈ 15.5 µM)
SMILES: O=C(N[C@H](CO)[C@H](O)c1ccc([N+](=O)[O-])cc1)C(Cl)Cl [CHLORAMPHENICOL]

Source: ChEMBL document CHEMBL1142027, “In vivo incorporation of an alkyne into proteins in Escherichia coli” (Bioorg Med Chem Lett, 2005)
